The results in this text go back to article PMC9774249, “A Novel Peptide with Antifungal Activity from Red Swamp Crayfish Procambarus clarkii” (Antibiotics, 2022).

In one test the test system is S. aureus ATCC 25923. The format is cell-based, Staphylococcus aureus. How it is done:
(§1) Natural extracts derived from hemocytes and hemolymph of P. clarkii were liophylized and then resuspended in ultrapure water to obtain a protein content of 22 µg/mL and 1400 µg/mL, respectively. MIC values of extracts were determined by a micro-method previously described based on serial dilution 1:2 of the extracts, using Mueller Hinton II medium and Sabouraud medium (for C. albicans), in 96-well microplates and starting from concentrations of 50% v/v to 1.5 % v/v in a final volume equal to 100 μL. Thus, 10 μL of microbial suspension (5 × 10^6 CFU/ mL) obtained from a bacterial culture grown at 37 °C for 24 h on Tryptic Soy Agar (TSA) in 5 mL of 0.9% NaCl, with a turbidity equivalent to a 0.5 McFarland standard was added to 96-well plates and incubated at 37 °C for 24 h. MICs of extracts were determined by a microplate reader (GloMax®-Multi Detection System, Promega Italia s.r.l, Milan, Italy) with the lowest concentration of the sample whose optical density (OD) at 570 nm was similar to negative control wells (broth without inoculum to control the sterility of medium). Moreover, a positive growth control (bacterial tested strain in the medium without extracts to compare the growth of cells with samples) and a sample control (extract solutions without inoculum to control the absorbance of the samples at different concentrations) were also added.
(§2) The same methods and media were used to determine the antimicrobial activity of synthetic peptides #3, #5, #7, and #14, and derivatives. They were dissolved in ultrapure water, or 1 mL ultrapure water with 40 μL NH4OH (28% v/v) in the case of peptide #14, to obtain a stock solution of 5 mg/mL. Working solutions of 250 μg/mL were prepared for each peptide in MHII or Sabouraud, and test solutions in a 96 wells plate were obtained by diluting in a series 1:2. Each assay was performed in triplicate.

Test [1] concerns C. albicans ATCC 10231. In kind it is cell-based, Candida albicans. How it is done:
as §1, §2

For another test, the system named is E. faecalis ATCC 29212. In kind it is cell-based, Enterococcus faecalis. How it is done: as §1, §2
The next test relates to E. coli ATCC 25922. In kind it is cell-based, Escherichia coli. As to the method: as §1, §2
For a further test, the system named is selected strains. As to the kind of experiment: EC50 under low-salt conditions (viable count). In kind it is cell-based. As to conditions: 10 mM sodium phosphate buffer, 100-0.15 μg/mL, 3 h 37 °C, CFU count, maximum tested 100 μg/mL. How it is done: The antimicrobial activity of the chemically synthesized peptides #3, #5, #7, and #14, and their derivatives, against selected strains were evaluated in terms of peptide half-maximal effective concentration to inhibit 50% of the viable bacteria (EC50), as reported by other authors. Briefly, 5 × 10^4 CFU per well of tested microorganisms were incubated with peptide concentrations from 100 to 0.15 μg/mL (1:2 serial dilutions) for 3 h at 37 °C in 100 μL of 10 mM sterile sodium phosphate buffer. After 3 h, 10 μL of each dilution was spotted in triplicate on Tryptic Soy Agar plates and incubated at 37 °C for 24 h. After the incubation time, the number of colonies from any sample were counted and compared with the CFU viable count of the none-treated growth control.

A further test relates to P. aeruginosa ATCC 15442. In kind it is cell-based, Pseudomonas aeruginosa. As to the method:
as §1, §2

The test system of test [2] is C. albicans ATCC 10231. In words: Cell membrane integrity, propidium iodide uptake. The format is cell-based, Candida albicans. As to conditions: 25, 20 and 15 μg/mL (sub-MIC), 24 h. How it is done: The cell membrane integrity of C. albicans ATCC 10231 after exposure to peptide #14d was evaluated using the PI uptake assay, as described by Bezerra et al., with some modifications. C. albicans ATCC 10231 was incubated with the peptide #14d in the same conditions reported for inhibition of biofilm formation. Thus, 20 μL of propidium iodide (PI, Molecular probes^TM, Fisher Scientific, Erembodegem, Belgium) was added to each well and the plate was incubated in the dark for 30 min at 25 °C. Then, the plate was washed three times with 0.9% NaCl and observed with an Olympus FV1200 confocal microscope with TIRF (Total internal reflection fluorescence) integrated, using an excitation wavelength of 535 nm and emission wavelength of 617 nm.

The test system of test [3] is C. albicans ATCC 10231. As to the kind of experiment: Overproduction of reactive oxygen species (DCFH-DA). In kind it is cell-based, Candida albicans. The conditions noted are these: 25 and 20 μg/mL. How it is done: The ROS overproduction in C. albicans ATCC 10231 due to peptide #14d was evaluated using the method described by Bezerra et al., with some modifications. C. albicans ATCC 10231 was incubated with peptide #14d in the same conditions reported for biofilm inhibition formation. Then, the formed biofilm was washed with 0.9% NaCl three times to remove the Sabouraud liquid medium. After this procedure, 20 μL of 2′,7′ dichlorofluorescein diacetate (DCFH-DA) was added to each well and the plate was incubated in the dark for 30 min at 25 °C. DCFH-DA is oxidized by ROS to dichlorofluorescein, which emits green fluorescence. Lastly, the biofilms were washed with 0.9% NaCl three times and observed with a fluorescence microscope with an excitation wavelength of 488 nm and emission wavelength of 525 nm.

For test [4], the system named is C. albicans ATCC 10231 biofilm. As to the kind of experiment: Scanning electron microscopy of biofilm morphology. The format is cell-based, Candida albicans. As to conditions: 25 μg/mL (sub-MIC), 24 h, versus control. How it is done:
The morphological changes in C. albicans ATCC 10231 cells were assessed by scanning electron microscopy (SEM, Phenom ProX, PhenomWorld, Eindhoven, Netherlands), using the method described by Bezerra et al., with some modifications. Biofilms were fixed with a 4% formaldehyde solution in DPBS for 30 min at 37 °C. Then, the biofilms were washed three times with sodium phosphate buffer (pH = 7.4). Next, samples were dehydrated with increased ethanol concentrations (30%, 50%, 70%, and 100%) for 10 min at 24 °C. Lastly, the final dehydration was conducted with […] (HDMS) for 10 min, removing the solvent at the end of washing to allow the samples to air dry. The samples were analyzed by scanning electron microscopy (SEM, Phenom ProX, PhenomWorld).

For test [5], the system named is C. albicans ATCC 10231. In kind it is cell-based, Candida albicans. The conditions noted are these: ATCC 10231, 24 h. As to the method: Sub-MIC concentrations were tested for their ability to interfere with the growth as sessile community of S. aureus ATCC 25923, P. aeruginosa ATCC 15442, and C. albicans ATCC 10231, as previously described. Bacterial strains or the fungal strain were incubated in test tubes with TSB or Sabouraud (5 mL) containing 2% w/v glucose at 37 °C for 24 h. After that, small aliquots (2.5 μL) from the diluted microbial suspensions whose turbidity was equivalent to a 0.5 McFarland standard were added to each well of a polystyrene sterile flat-bottom 96-well plate filled with TSB or BS (200 μL) with 2% w/v glucose. Sub-MIC concentration values of amino acidic fraction from hemocytes and hemolymph of P. clarkii or of chemically synthesized peptides were directly added to the wells and the plates were incubated at 37 °C for 24 h. After biofilm growth, samples were washed twice with sterile 0.9% NaCl and stained with 200 μL of 0.1% w/v crystal violet solution for 15 min at 37 °C [58]. Excess solution was discarded, and the plate was washed twice using tap water. […] Last, the absorbance was determined at 600 nm using a microplate reader (GloMax®-Multi Detection System, Promega Italia s.r.l, Milan, Italy). […] The percentage of inhibition was calculated through the formula:% Inhibition = [(OD growth − OD sample)/OD growth control] × 100. […]

The mark [6] stands for this setting: synthetic peptides, S. aureus ATCC 25923, maximum tested 250 μg/mL, 1:2 dilutions, MHII, 37 °C 24 h, triplicate.
The mark [7] stands for this setting: synthetic peptides, E. faecalis ATCC 29212, maximum tested 250 μg/mL, 1:2 dilutions, MHII, 37 °C 24 h, triplicate.
Where [8] appears, read: synthetic peptides, E. coli ATCC 25922, maximum tested 250 μg/mL, 1:2 dilutions, MHII, 37 °C 24 h, triplicate.
Setting [9] is: synthetic peptides, P. aeruginosa ATCC 15442, maximum tested 250 μg/mL, 1:2 dilutions, MHII, 37 °C 24 h, triplicate.

Read-outs that look alike come from different tables or passages of the source. Where no end group is shown, it is not given here. Bounds are passed on as bounds.

SSGYGGYGGGRF [Peptide #3]: the MIC (in general, the smallest concentration in the dilution series that meets the test's criterion for growth inhibition) in the test with S. aureus ATCC 25923 (setting [6]) is more than 250 µg/mL; against C. albicans ATCC 10231 [1] (synthetic peptides, C. albicans ATCC 10231, maximum tested 250 μg/mL, 1:2 dilutions, Sabouraud, 37 °C 24 h, triplicate), more than 250 µg/mL; against E. faecalis ATCC 29212 (setting [7]), more than 250 µg/mL; in the test on E. coli ATCC 25922 (setting [8]), more than 250 µg/mL; against P. aeruginosa ATCC 15442 (setting [9]) it was more than 250 µg/mL. The “EC50 (concentration to inhibit 50% of the viable bacteria)” value in the test with selected strains is more than 100 µg/mL.

With “NWWTGARCKAATLK [Peptide #5d, synthetic derivative of natural peptide #5]”, the MIC against S. aureus ATCC 25923 (setting [6]), against E. faecalis ATCC 29212 (setting [7]), against E. coli ATCC 25922 (setting [8]) and against P. aeruginosa ATCC 15442 (setting [9]) was more than 250 µg/mL each time.

Consider FSLVNAVDQTT [Peptide #14], for which the minimum inhibitory concentration (MIC) against S. aureus ATCC 25923 (ATCC 25923, 24 h) is more than 250 µg/mL; with C. albicans ATCC 10231 [1] (ATCC 10231, 24 h), more than 250 µg/mL; in the test with E. faecalis ATCC 29212 (ATCC 29212, 24 h) it was more than 250 µg/mL; with E. coli ATCC 25922 (ATCC 25922, 24 h), more than 250 µg/mL; in the test with P. aeruginosa ATCC 15442 (ATCC 15442, 24 h), more than 250 µg/mL. Moreover, the “EC50 (concentration to inhibit 50% of the viable bacteria)” value with selected strains was more than 100 µg/mL.

On to IIIRKGRW [Peptide #3d], for which the MIC with S. aureus ATCC 25923 (ATCC 25923, 24 h) is more than 250 µg/mL; against E. faecalis ATCC 29212 (ATCC 29212, 24 h) it was more than 250 µg/mL; in the test with E. coli ATCC 25922 (ATCC 25922, 24 h), more than 250 µg/mL; in the test with P. aeruginosa ATCC 15442 (ATCC 15442, 24 h) it was more than 250 µg/mL.

In the case of NNWTGADCKAATLK [Peptide #5], the MIC in the test on S. aureus ATCC 25923 (ATCC 25923, 24 h) is more than 250 µg/mL; against C. albicans ATCC 10231 [1] (ATCC 10231, 24 h), more than 250 µg/mL; against E. faecalis ATCC 29212 (ATCC 29212, 24 h), more than 250 µg/mL; with E. coli ATCC 25922 (ATCC 25922, 24 h), more than 250 µg/mL; in the test with P. aeruginosa ATCC 15442 (ATCC 15442, 24 h), more than 250 µg/mL. Also, the “EC50 (concentration to inhibit 50% of the viable bacteria)” value in the test with selected strains is more than 100 µg/mL.

For FHLVWRAGGTF [Peptide #14d], in the test on C. albicans ATCC 10231 [2], the “membrane integrity (PI uptake, red fluorescence)” value is “damaged the cell membrane and induced an increase in red fluorescence intensity”. Also, the “minimal fungicidal concentration (MFC)” value in the test with C. albicans was 62.5 µg/mL. Also, in the test with C. albicans ATCC 10231 [3], the “ROS overproduction (DCFH-DA fluorescence)” value is listed as “did not induce ROS overproduction”. The MIC was more than 250 µg/mL against S. aureus ATCC 25923 (ATCC 25923, 24 h); 31.2 µg/mL in the test on C. albicans ATCC 10231 [1] (ATCC 10231, 24 h); more than 250 µg/mL with E. faecalis ATCC 29212 (ATCC 29212, 24 h); more than 250 µg/mL with E. coli ATCC 25922 (ATCC 25922, 24 h); more than 250 µg/mL in the test on P. aeruginosa ATCC 15442 (ATCC 15442, 24 h). For the same sequence, in test [4], the “biofilm morphology by SEM” value is “evident variations in the morphology, inducing wrinkles and scars”. The “BIC50 (biofilm inhibition concentration)” value in the test on C. albicans ATCC 10231 [5] was found to be 23.2 µg/mL.

In the case of YGGYFGNR [Peptide #7], the MIC against S. aureus ATCC 25923 (ATCC 25923, 24 h) was more than 250 µg/mL; with C. albicans ATCC 10231 [1] (ATCC 10231, 24 h), more than 250 µg/mL; in the test with E. faecalis ATCC 29212 (ATCC 29212, 24 h), more than 250 µg/mL; in the test on E. coli ATCC 25922 (ATCC 25922, 24 h), more than 250 µg/mL; in the test on P. aeruginosa ATCC 15442 (ATCC 15442, 24 h) it was more than 250 µg/mL. In the test with selected strains, the “EC50 (concentration to inhibit 50% of the viable bacteria)” value was more than 100 µg/mL.
